Test results taken from ChEMBL document CHEMBL3885861, “Open TG-GATES”.

Species on record: Rattus norvegicus
Assay: Open TG-GATES - Regimen: Single
Format: toxicity, organism-based, Sprague-Dawley
Parameters: regimen Single, gender Male, age 6 weeks
Conditions: in vivo, po, route gavage; for APTT / Bas / Eos / Fbg / Hb / Ht / Lym / MCHC / MCV / Mono / PT / Plat / RBC / Ret / WBC / Neu: tissue Blood; for KIDNEY_L / KIDNEY_R / KIDNEY_TOTAL: tissue Kidney; for LIVER: tissue Liver; for ALP / ALT / AST / BUN / CRE / Ca / Cl / DBIL / IP / LDH / Na / PL / RALB / TBIL / TC / TG / TP / gamma-GTP / GLC: tissue Plasma
[1] = 0 mg/kg, 3 h, dose level Control
[2] = 0 mg/kg, 6 h, dose level Control
[3] = 0 mg/kg, 9 h, dose level Control
[4] = 0 mg/kg, 24 h, dose level Control
[5] = 120 mg/kg, 3 h, dose level Middle

## CC(C)N(CCC(C(N)=O)(c1ccccc1)c1ccccn1)C(C)C (stereo not drawn) [DISOPYRAMIDE]
[1]
  TERMINAL_BW: 207.1 g
  APTT: 21.7 s
  Bas: 0%
  Eos: 1%
  Fbg: 318.8 mg/dL
  Hb: 13.2 g/dL
  Ht: 41.1%
  Lym: 77.6%
  MCHC: 32.1%
  MCV: 64.4 fL
  Mono: 2.6%
  PT: 15.8 s
  Plat: 117.3 x10_4/uL
  RBC: 638.6 x10_4/ul
  Ret: 8%
  WBC: 84.7 x10_2/uL
  KIDNEY_L: 0.9 g
  KIDNEY_R: 0.9 g
  KIDNEY_TOTAL: 1.9 g
  LIVER: 9.6 g
  ALP: 1747.4 IU/L
  ALT: 51 IU/L
  AST: 79.8 IU/L
  BUN: 12.4 mg/dL
  CRE: 0.2 mg/dL
  Ca: 10.5 mg/dL
  Cl: 108.2 meq/L
  DBIL: 0 mg/dL
  IP: 8.5 mg/dL
  LDH: 193.8 IU/L
  Na: 141.8 meq/L
  PL: 122.6 mg/dL
  RALB: 2.9 g/dL
  TBIL: 0.006 mg/dL
  TC: 69 mg/dL
  TG: 45.4 mg/dL
  TP: 5.4 g/dL
  gamma-GTP: 1.4 IU/L
[2]
  TERMINAL_BW: 210.2 g
  APTT: 22.4 s
  Bas: 0%
  Eos: 0.4%
  Fbg: 310.2 mg/dL
  Ht: 39.9%
  Lym: 80.8%
  MCHC: 32%
  MCV: 64.8 fL
  Mono: 2.6%
  PT: 15.7 s
  Plat: 122.8 x10_4/uL
  RBC: 615.4 x10_4/ul
  Ret: 7.8%
  WBC: 110.6 x10_2/uL
  KIDNEY_L: 1 g
  KIDNEY_R: 1 g
  KIDNEY_TOTAL: 1.9 g
  LIVER: 9.3 g
  ALT: 42.4 IU/L
  AST: 73.2 IU/L
  BUN: 13 mg/dL
  CRE: 0.1 mg/dL
  Ca: 10.8 mg/dL
  Cl: 105.6 meq/L
  DBIL: 0 mg/dL
  IP: 9.3 mg/dL
  LDH: 164.8 IU/L
  Na: 140.6 meq/L
  PL: 135 mg/dL
  RALB: 2.9 g/dL
  TBIL: 0.004 mg/dL
  TC: 72.6 mg/dL
  TG: 91 mg/dL
  TP: 5.5 g/dL
  gamma-GTP: 1.2 IU/L
[3]
  TERMINAL_BW: 204.9 g
  APTT: 22.5 s
  Bas: 0%
  Eos: 0.4%
  Fbg: 300.8 mg/dL
  Hb: 12.9 g/dL
  Ht: 40%
  Lym: 80.6%
  MCHC: 32.3%
  MCV: 62.7 fL
  Mono: 2.6%
  PT: 15.9 s
  Plat: 113.2 x10_4/uL
  RBC: 638.2 x10_4/ul
  Ret: 7.5%
  WBC: 90.9 x10_2/uL
  KIDNEY_L: 1 g
  KIDNEY_R: 1 g
  KIDNEY_TOTAL: 2 g
  LIVER: 8.8 g
  ALP: 1336.4 IU/L
  ALT: 41.6 IU/L
  AST: 72.8 IU/L
  BUN: 13.4 mg/dL
  CRE: 0.1 mg/dL
  Ca: 10.5 mg/dL
  Cl: 106.6 meq/L
  DBIL: 0.002 mg/dL
  IP: 9.2 mg/dL
  LDH: 146.8 IU/L
  Na: 141.6 meq/L
  PL: 116.8 mg/dL
  RALB: 2.9 g/dL
  TBIL: 0.002 mg/dL
  TC: 62.4 mg/dL
  TG: 61.4 mg/dL
  TP: 5.4 g/dL
  gamma-GTP: 1.2 IU/L
[4]
  TERMINAL_BW: 222.5 g
  APTT: 21.9 s
  Bas: 0%
  Eos: 1%
  Fbg: 317 mg/dL
  Hb: 13.2 g/dL
  Ht: 40.9%
  Lym: 82.6%
  MCHC: 32.3%
  MCV: 65 fL
  Mono: 2.4%
  PT: 16 s
  Plat: 117 x10_4/uL
  RBC: 629.4 x10_4/ul
  Ret: 7.9%
  WBC: 80.5 x10_2/uL
  KIDNEY_L: 1 g
  KIDNEY_R: 1 g
  KIDNEY_TOTAL: 2 g
  LIVER: 10.6 g
  ALP: 1631 IU/L
  ALT: 53.6 IU/L
  AST: 78.6 IU/L
  BUN: 17 mg/dL
  CRE: 0.2 mg/dL
  Ca: 10.7 mg/dL
  Cl: 105 meq/L
  DBIL: 0 mg/dL
  IP: 7.8 mg/dL
  LDH: 192.4 IU/L
  PL: 143.2 mg/dL
  RALB: 3 g/dL
  TBIL: 0 mg/dL
  TC: 71.8 mg/dL
  TG: 104 mg/dL
  TP: 5.5 g/dL
  gamma-GTP: 2 IU/L
40 mg/kg, 3 h, dose level Low
  TERMINAL_BW: 208.4 g
  APTT: 23 s
  Bas: 0%
  Eos: 1%
  Fbg: 313.4 mg/dL
  Hb: 13 g/dL
  Ht: 40.8%
  Lym: 79.6%
  MCHC: 32%
  MCV: 64.4 fL
  Mono: 2.6%
  Neu: 15.8%
  PT: 15.5 s
  Plat: 122.4 x10_4/uL
  RBC: 633.6 x10_4/ul
  Ret: 8.2%
  WBC: 102.4 x10_2/uL
  KIDNEY_L: 0.9 g
  KIDNEY_R: 1 g
  KIDNEY_TOTAL: 1.9 g
  LIVER: 9.9 g
  ALP: 1280.4 IU/L
  ALT: 48.2 IU/L
  AST: 73.2 IU/L
  BUN: 10.6 mg/dL
  CRE: 0.2 mg/dL
  Ca: 10.7 mg/dL
  Cl: 107.4 meq/L
  DBIL: 0 mg/dL
  IP: 8.5 mg/dL
  LDH: 163.4 IU/L
  Na: 140.8 meq/L
  PL: 143.2 mg/dL
  RALB: 3 g/dL
  TBIL: 0.002 mg/dL
  TC: 82.4 mg/dL
  TG: 60.6 mg/dL
  TP: 5.5 g/dL
  gamma-GTP: 1.6 IU/L
40 mg/kg, 6 h, dose level Low
  TERMINAL_BW: 212.3 g
  APTT: 21.2 s
  Bas: 0%
  Eos: 0.6%
  Fbg: 307.6 mg/dL
  Hb: 13 g/dL
  Ht: 40.9%
  Lym: 80.6%
  MCHC: 31.8%
  MCV: 64.3 fL
  Mono: 2.4%
  Neu: 15.8%
  PT: 15.5 s
  Plat: 119.9 x10_4/uL
  RBC: 635.8 x10_4/ul
  Ret: 8.1%
  WBC: 80.4 x10_2/uL
  KIDNEY_L: 1 g
  KIDNEY_R: 1 g
  KIDNEY_TOTAL: 2 g
  LIVER: 9.3 g
  ALP: 1258.6 IU/L
  ALT: 40 IU/L
  AST: 71.2 IU/L
  BUN: 12.4 mg/dL
  CRE: 0.1 mg/dL
  Ca: 10.8 mg/dL
  Cl: 106.2 meq/L
  DBIL: 0 mg/dL
  GLC: 168.6 mg/dL
  IP: 9.5 mg/dL
  LDH: 161.8 IU/L
  Na: 140 meq/L
  PL: 132.2 mg/dL
  RALB: 3 g/dL
  TBIL: 0.008 mg/dL
  TC: 75 mg/dL
  TG: 75.8 mg/dL
  TP: 5.4 g/dL
  gamma-GTP: 1 IU/L
40 mg/kg, 9 h, dose level Low
  TERMINAL_BW: 203.3 g
  APTT: 21.6 s
  Bas: 0%
  Eos: 0.6%
  Fbg: 328.4 mg/dL
  Hb: 13 g/dL
  Ht: 40.3%
  Lym: 77.6%
  MCHC: 32.3%
  MCV: 64 fL
  Mono: 2%
  PT: 15.6 s
  Plat: 124.6 x10_4/uL
  RBC: 630.4 x10_4/ul
  Ret: 7.9%
  WBC: 88.7 x10_2/uL
  KIDNEY_L: 0.9 g
  KIDNEY_R: 1 g
  KIDNEY_TOTAL: 1.9 g
  LIVER: 8.7 g
  ALP: 1420.4 IU/L
  ALT: 34.2 IU/L
  AST: 68.6 IU/L
  BUN: 12.4 mg/dL
  CRE: 0.1 mg/dL
  Ca: 10.8 mg/dL
  Cl: 107.2 meq/L
  DBIL: 0 mg/dL
  GLC: 169.6 mg/dL
  IP: 9.5 mg/dL
  LDH: 151.6 IU/L
  Na: 140.8 meq/L
  PL: 129.4 mg/dL
  RALB: 3.1 g/dL
  TBIL: 0.008 mg/dL
  TC: 75.4 mg/dL
  TG: 58.2 mg/dL
  TP: 5.5 g/dL
  gamma-GTP: 1.2 IU/L
40 mg/kg, 24 h, dose level Low
  TERMINAL_BW: 217.8 g
  APTT: 22.7 s
  Bas: 0%
  Eos: 0.8%
  Fbg: 306 mg/dL
  Hb: 13.2 g/dL
  Ht: 40.2%
  Lym: 79.4%
  MCHC: 32.8%
  MCV: 64.5 fL
  Mono: 1.8%
  Neu: 17.2%
  PT: 15.3 s
  Plat: 115.3 x10_4/uL
  RBC: 623 x10_4/ul
  Ret: 7%
  WBC: 91.1 x10_2/uL
  KIDNEY_L: 0.9 g
  KIDNEY_R: 1 g
  KIDNEY_TOTAL: 1.9 g
  LIVER: 10.5 g
  ALP: 1700.4 IU/L
  ALT: 47.2 IU/L
  AST: 71.8 IU/L
  BUN: 15.4 mg/dL
  CRE: 0.1 mg/dL
  Ca: 10.6 mg/dL
  Cl: 105.6 meq/L
  DBIL: 0 mg/dL
  IP: 8 mg/dL
  LDH: 156.2 IU/L
  Na: 142.8 meq/L
  PL: 147 mg/dL
  RALB: 3 g/dL
  TBIL: 0.002 mg/dL
  TC: 76.4 mg/dL
  TG: 96 mg/dL
  TP: 5.4 g/dL
  gamma-GTP: 1.6 IU/L
[5]
  TERMINAL_BW: 205.2 g
  APTT: 23.3 s
